Like-named read-outs stand apart in the source and are kept apart here.

This is an account of results in patent US20260256833A1, “USE OF BORON FOR THE TREATMENT OF LEISHMANIASIS DISEASE” (YEDITEPE UNIVERSITESI, priority 2023, published 2026).

The test system of one data set is leishmaniasis. As to conditions: cited from earlier work.
For data set [1], the system named is Leishmania infantum (MHOM/MA/67/ITMA-P263) promastigotes. The data set is described as follows: Resazurin / Alamar Blue viability assay on promastigotes. The data set is classed as cell-based. To be noted: for parasite viability: SPT above 100 μM. On the procedure: Leishmania infantum (MHOM/MA/67/ITMA-P263) promastigotes are incubated in RPMI medium (heat inactivated 10% fetal bovine serum, 2 mM L-glutamine, 20 mM HEPES, 100 U/ml penicillin, 100 μg/ml streptomycin) at 27° C. Parasites reaching the logarithmic phase (10^6/ml) are made infective.
Leishmania parasites are incubated in culture medium and the effect of SPT on the proliferation of their promastigotes is analyzed. In summary, Leishmania infantum (MHOM/MA/67/ITMA-P263) promastigotes are incubated in RPMI medium (heat inactivated 10% fetal bovine serum, 2 mM L-glutamine, 20 mM Hepes, 100 U/ml penicillin, 100 μg/ml streptomycin) at 27° C. […] The viability of the parasites is determined by applying Alamar Blue assay. By obtaining IC50 values from the samples whose fluorescence intensities are read according to the Alamar Blue assay protocol, the activities of SPT are determined.
Background: Resazurin is reduced to fluorescent resorufin, in cell work by metabolically active cells.

Data set [2] deals with L. infantum promastigotes. Nature of the data set: Mitochondrial membrane potential, Rhodamine 123. The data set is classed as cell-based, Leishmania infantum. On the procedure:
Mitochondrial membrane potential (ΔΨPm) is measured by using Rhodamine 123 mitochondrial specific fluorescent dye (Sigma-Aldrich). In summary, cells were seeded in a 48-well plate at 300.000 parasites/well. The following day, parasites are treated with SPT at various concentrations (50-400 uM) for 24 and 48 hours. After incubation, cells are resuspended in serum-free RPMI containing 10 μM Rhodamine 123 and incubated in the dark at 37-C for 30 minutes. They are then centrifuged and washed twice with 1×DPBS. The cell suspension is transferred to a 96-well plate and fluorescence intensities are measured at 490 nm excitation and 515 nm emission by using a spectrophoto-fluorimeter (Varioskan LUX multimode reader, Thermo Scientific). Absorbance is evaluated as a fold change with respect to the negative control group.

Data set [3] concerns macrophages infected with L. infantum. The data set is described as follows: Infection rate of infected macrophages by flow cytometry. It is filed as cell-based, Leishmania infantum. To be noted: SPT 50, 75, 100, 150, 200 and 400 μM; 24, 48 and 72 hours. On the procedure:
RAW264.7 macrophage cells and L. infantum promastigotes were stained with PKH26 (Red Fluorescent Cell Linker Kit, Sigma-Aldrich) and PKH67 (Green Fluorescent Cell Linker Kit, Sigma-Aldrich), respectively, according to the procedure described previously in the article by Islek et al. (2021). A total cell concentration of 10^7 cells/ml was used. Before infection, the staining rate of parasites and cells was determined by flow cytometry.
The effect of SPT on the proliferation of macrophage cells infected with parasites is analyzed. In summary, macrophages are infected with parasites at 37° C. at a ratio of 10:1 (parasite: macrophage). After 3 and a half hours, infected macrophages are washed with medium to remove the remaining parasites. Infected macrophages are left to incubate with SPT at different concentration ranges at 37° C. for 3 days, fixed at the end of 3 days and the infection rate is determined by flow cytometer. The percentage of infection is determined according to the following formula: […]
(A flow cytometer gives signals particle by particle.)

The subject of data set [4] is L. infantum promastigotes. Nature of the data set: Phase-contrast and SEM morphology of parasites. The data set is classed as cell-based, Leishmania infantum. To be noted: 24 and 48 hours of incubation with SPT. Here is the method:
In parallel to this, Leishmania parasites incubated with SPT at different concentrations were morphologically examined under scanning electron microscopy.

Take `CCCCCCCCCCCCCCCCOP(=O)([O-])OCC[N+](C)(C)C` [Miltefosine]: in the data set on leishmaniasis (miltefosine data compared with 6-month Amphotericin B therapy), the “cure (comparison data)” value is 94%. For the same compound, the cure level in the data set with leishmaniasis (oral, 3-4-week treatment) is given as 95-100%.

As for `O.O.O.O.[Na+].[O-]B1OO1` [SPT, sodium perborate tetrahydrate], in data set [1] (72 hours), half-maximal inhibition (IC50) was put at 72 ± 7.51 µM. In addition, the cell viability (as a rule, a read-out of living cells in per cent, often relative to untreated cells) is recorded as “below 80%” in data set [1] (SPT 75 μM, 24 hours); less than 55% in data set [1] (SPT 75 μM, 48 hours); “above 80%” in data set [1] (SPT ≤50 uM, 24, 48 and 72 hours). In data set [1] (SPT 75 μM, 72 hours), this compound displayed a viability of promastigotes of 50%. In data set [1] (SPT 100, 125, 150 and 200 μM, 72 hours), the “reduction in parasite viability” value is given as “approximately 80%”. Moreover, the parasite viability is reported as less than 33% in data set [1] (24 hours) and less than 25% in data set [1] (48 hours). Also, the mitochondrial membrane potential amounted to 52.2% in data set [2] (SPT 100 μM, 24 hours); 32.8% in data set [2] (SPT 100 μM, 48 hours); 39.1% in data set [2] (SPT 150 μM, 24 hours); 34.1% in data set [2] (SPT 150 μM, 48 hours); 57.5% in data set [2] (SPT 200 μM, 24 hours); 41.5% in data set [2] (SPT 200 μM, 48 hours). Moreover, the mitochondrial membrane potential in data set [2] (SPT 400 μM, 24 hours) was 44.6%; in data set [2] (SPT 400 μM, 48 hours) it was 30.1%; in data set [2] (SPT ≥100 μM, 24 hours), “below 53%”; in data set [2] (SPT ≥100 μM, 48 hours) it was “below 35%”. The “percentage of mitochondrial membrane potential” value in data set [2] (SPT ≤75 uM, 24 and 48 hours) is reported as “above 80%”. Besides, in data set [3], the infection rate result is “infection rate did not increase regardless of time and concentration”. In addition, the “cell number and morphology by microscopy” value in data set [4] is recorded as “dose-dependent decrease in cell number”.

As for `C[C@@H]1[C@H](O)[C@@H](C)/C=C/C=C/C=C/C=C/C=C/C=C/C=C/[C@H](O[C@@H]2O[C@H](C)[C@@H](O)[C@H](N)[C@@H]2O)C[C@@H]2O[C@](O)(C[C@@H](O)C[C@@H](O)[C@H](O)CC[C@@H](O)C[C@@H](O)CC(=O)O[C@H]1C)C[C@H](O)[C@H]2C(=O)O` [Amphotericin B], in the data set with leishmaniasis (6-month therapy), the “cure (comparison data)” value is reported as 97%. The cure rate in the data set on leishmaniasis (cases where antimonial resistance is observed) is given as approximately 100%.
